For data set [1], the system named is patients suffering from hypoalbuminaemia (serum albumin value less than 3.0 g/dL). The data set can be described thus: Clinical test: serum albumin values in patients suffering from hypoalbuminaemia. It counts as in vivo, human. As for the experimental part:
The compound of the present invention (Compound 21 ) was administered to 6 patients suffering from hypoalbuminaemia (serum albumin value was less than 3.0 g/dL) at the dose of 200 mg/day (dosage for only Patient 1 was 400 mg/day). Serum albumin values were compared between before and after administration for 24 weeks (after 16 weeks in case of only Patient 2). […] In another case of tested subjects showing a normal value of serum albumin, any change of the value was not noted by the administration of the compounds of the present invention.

A further data set has as its system patients. The experiment in a line: Clinical tests: toxicity and side effects. The class given is in vivo, human. The note with it: clinically confirmed.

The text below walks through data of patent publication US6451831B1, “Agent for hypoalbuminaemia” (Nippon Zoki Pharmaceutical Co., Ltd., priority 2001, dated 2002).

As for `CN1C(=O)NC(=O)C1O` (stereo not drawn) [Compound 21, 5-Hydroxy-1-methylhydantoin], the “Effect on serum albumin values (in words)” value in data set [1] (6 patients with hypoalbuminaemia, 200 mg/day (Patient 1: 400 mg/day), 24 weeks (Patient 2: 16 weeks), paired t-test) is given as “significantly increased”. The “Serum albumin value After Administration for 24 weeks” value in data set [1] (Patient 1, 400 mg/day, 24 weeks, before administration 1.7 g/dL) was 2.1 g/dL; in data set [1] (Patient 2, 200 mg/day, after 16 weeks according to text, before administration 2.0 g/dL), 2.3 g/dL; in data set [1] (Patient 3, 200 mg/day, 24 weeks, before administration 2.3 g/dL), 3.4 g/dL; in data set [1] (Patient 4, 200 mg/day, 24 weeks, before administration 2.4 g/dL), 2.7 g/dL; in data set [1] (Patient 5, 200 mg/day, 24 weeks, before administration 2.5 g/dL), 3.2 g/dL; in data set [1] (Patient 6, 200 mg/day, 24 weeks, before administration 2.7 g/dL) it was 3.0 g/dL. In addition, the “Serum albumin value After Administration for 24 weeks, Mean Value” in data set [1] (mean of 6 patients, before administration 2.3 ± 0.2 g/dL, p < 0.01, paired t-test) stood at 2.8 ± 0.2 g/dL. Besides, the “Toxicity and side effects (in words)” value in the data set with patients is “low toxicity and lower side effects”.
